Measured values taken from patent publication US11248995B2, “Hydrogel encapsulation of living organisms for long-term microscopy” (priority 2017, dated 2022).
Counter-ions that a name gives are not always drawn.

Tests used:
[1] = tested on: C. elegans; experiment: Quantification of movement of hydrogel-embedded animals; assay type: in vivo
Description: Young adult QW1217 worms with pan-neuronal expression of nuclear-localized mCherry were embedded in 10% and 20% PEG hydrogels (3 μL with 100 μm spacer, 0.1% I2959, 20 s exposure using a 312 nm UV source). Worms received either no pretreatment, exposure to hypoosmotic (diH2O, 0 mOsm) or hyperosmotic buffers (0.5 M glycerol in diH2O, 500 mOsm or 1.5×S-Basal, 420 mOsm) for 10 min, or cooling in a −20° C. freezer or in contact with ice for 1-3 min prior to crosslinking. PEG hydrogel solutions were prepared in diH2O or S-Basal buffer, and some contained the paralytic reagents 25 mM sodium azide (Massie et al., 2003) or 1 mM tetramisole hydrochloride (Sigma) (Larsch et al., 2013). Other hydrogel solutions were prepared in 500 mM glycerol or 1.5×S-Basal hyperosmotic buffers. After crosslinking, all hydrogels were submerged in an aqueous solution of either S-Basal, diH20, sodium azide (25 mM) or tetramisole (1 mM) for imaging. Videos were captured with a Hamamatsu Orca-Flash 4.0 camera at 1 frame/sec for 3 min on a Zeiss AxioObserver inverted epifluorescence microscope with a 20×/0.5 NA objective.
Animal movement was analysed by comparing frame-to-frame image differences. Movement index is described using the equation M.I.=ΔIROI/IROI−IBG, where ΔIROI represents the difference in pixel intensity between consecutive frames, averaged across a region of interest (ROI), IROI represents the average intensity of the ROI, and IBG represents the average intensity of a Background region. […] First, the absolute value differences between each pair of consecutive frame averaged pixel intensities were calculated. Next, the difference image stack was smoothed (average of its 3×3 neighborhood). To reduce the contribution of pixel noise, a value of 10 (corresponding to average pixel noise) was subtracted uniformly from each frame and negative values were set to 0. Regions of Interest (ROIs) were selected over the head (nerve ring) and ventral cord and a background region (BG). The movement index was calculated as […], where ΔIROI is the mean of difference images across the ROI, and ΔIROI and IBG, are the mean intensity of the ROI and background regions for the first frame, respectively. Here, identical sequential frames would have a M.I. of zero, whereas images that have changes in position, rotation, focus, or intensity have increasing M.I. values.
Movement in the image plane was quantified by tracking cell nucleus position over 3 minutes. Individual neurons were tracked using NeuroTracker (Larsch et al., 2013) and centroid positions were used to determine the range of axial movement by the animal.

[2] = tested on: AWA sensory neuron pair; experiment: Microfluidic chemical pulse stimulation of hydrogel-embedded C. elegans, GCaMP light sheet imaging; assay type: in vivo; conditions: 5-s and 10-s pulses
From the text: Wild-type C. elegans expressing GCaMP in the AWA sensory neuron pair were encapsulated in a hydrogel disk above a 100 μm wide microfluidic channel. External tubing connections and valves delivered 1, 5, or 10 second long pulses of chemical flow beneath the hydrogel disk. Small molecule chemicals (MW<500 Da) diffuse rapidly through the hydrogel, typically in under 1 second, to reach the encapsulated organism(s).

[3] = tested on: C. elegans; conditions: 25 mM sodium azide, agarose pad
Description: For hydrogel encapsulation, 5 μL of a 10% PEG hydrogel with 0.1% I2959 containing late L1/L2 stage animals was placed on a fluorinated glass slide with 50 μm thick tape spacers, polymerized with 312 nm UV light, and imaged on an upright Zeiss Axioskop microscope with a 100×/1.4 NA objective using DIC optics. Images were captured every hour for 12 hours without movement of the sample. For comparison, animals were mounted onto conventional agarose pads with chemical or physical restraint. […] Animals were picked into this droplet and a cover slip was placed on top before imaging. Alternatively, a 0.25-0.5 μL drop of polystyrene nanobeads (100 nm, Polysciences, Inc.) was placed on a 10% agarose pad prior to adding animals, a cover slip, and imaging.

[4] = tested on: AWA chemosensory neuron calcium responses; experiment: Automated small-molecule screening of optogenetically-evoked calcium activity suppressors (LOPAC library); assay type: in vivo, C. elegans; conditions: 10 μM, 1% DMSO, about 18 hours exposure; beyond mean ± 3 standard deviations
Description: For all well plate experiments, equal parts of 20% PEGDA (0.1% Irgacure) was added to a synchronized animal population in M9, resulting in ˜5 an/μL, 10% PEGDA, 0.05% Irgacure, and 0.5×M9. […] Both procedures used repeated mixing (4-5×) to maintain an even animal suspension during transfer. The animal-containing multiwell plate was transiently cooled for 10 min at −20° C. to settle animals at the bottom of the well, then immediately exposed to 308 nm UV light to photo-crosslink and embed the animals. Single wells can also be prepared by standard picking and transfer of animals to a final 10% gel solution (using PCR tubes), depending on experimental design or desired throughput.
Aliquoted LOPAC drug library plates were received from the UMMS small-molecule screening facility as 16 individual 96-well plates containing 3 nmol of compound per well (3 μL of 1 mM in 100% DMSO), stored at −80° C. until use. […]
A suite of custom ImageJ macros was developed for automated neuron selection and trace recording (aNT), or to manually select neurons (neuronPos) and then record calcium intensity in each well across all wells and cycles automatically (NT). […] Local background subtracted fluorescence (F) was calculated as F=(FR−Fbg).

[5] = tested on: AWA activity; experiment: Nemadipine-A treatment of multi-well plate embedded animals, optogenetically-evoked calcium responses; assay type: in vivo, C. elegans; conditions: 10, 50, 100 uM vs 1% DMSO control, stimulated every 10 min for 24 hours; dose dependence
Description: A small volume (10 uL) of PEG hydrogel solution (10% with 0.5×S. basal) with photoinitiator was pipetted into each PCR tube (one tube per one well). Young adult animals (CX16573) were transferred into the hydrogel solution by worm pick (up to 40 or more). The hydrogel and worm solution was transferred from one PCR tube to the bottom of one well of a 384 well plate, and repeated for as many PCR tubes prepared. The 384 well plate was placed into −20° C. freezer for no more than 10 min, then immediately placed on the 308 nm light source to crosslinking for no more than 45 s. Then, a small volume (60 uL) of 1 mM ATR in water was pipetted into crosslinked wells, covered, placed in the dark, and allowed to incubate for at least 1 hr, or up to 24 hrs. Animals were then imaged on a custom designed microscope and optical configuration allowing for both red-light excitation and blue-light excitation sent through the objective, all set by the initial experimental settings. Red light pulse durations, well position, cycle number and cycle delay conditions were set by a custom MicroManager script, and executed.
After crosslinking and before all-trans retinal (ATR) transfer to each well, solutions of 10 μM, 50 μM, and 100 μM nemadipine-A to a final concentration of 1% DMSO in 1 mM ATR were prepared. A control well containing only 1% DMSO in 1 mM ATR was prepared as well. […]

[6] = hyper-osmotic solution (0.5 M glycerol 500 mOsm or 1.5x S-Basal 420 mOsm) 10 min prior to or during crosslinking, imaged in S-Basal buffer

OCC(O)CO [glycerol]
Movement index (M.I.) [1, 6]: 0.02±0.007 | Range of movement over 3 min [1, 6]: 8±7 μm

CC(=O)C(C)=O [diacetyl]
AWA neuron response (relative integrated fluorescence) to odor stimulation [2]: stimulated one of the two neurons

[N-]=[N+]=[N-] [sodium azide]
Reduction of movement index ([1]; 20% PEG hydrogels, paralytic vs no paralytic, P<0.0001): 5 fold | Movement index (M.I.) ([1]; C. elegans embedded in 20% PEG hydrogels, mean over 3 min, 25 mM sodium azide or 1 mM tetramisole during gelation or transiently after encapsulation, hydrogel alone without paralytic): 0.07±0.01 | Movement (displacement range) over 3 minutes ([1]; C. elegans embedded in 20% PEG hydrogels, 25 mM sodium azide or 1 mM tetramisole, hydrogel alone without paralytic): 18 μm | Cell death in paralyzed animals [3]: characteristics of necrotic cell death after 6 hours

ivermectin
Screen result: relative peak ΔF/F0 calcium response, fold change cycle 4 to 1 [4]: positive hits

CCOC(=O)C1=C(C)NC(C)=C(C(=O)OCC)C1c1c(F)c(F)c(F)c(F)c1F [Nemadipine-A]
Peak calcium response (change in fluorescence) of AWA [5]: reduction in peak response

c1ccc(C2CN3CCSC3=N2)cc1 (stereo not drawn) [tetramisole, tetramisole hydrochloride]
Movement (displacement range) over 3 minutes ([1]; in vivo): 19 μm | Movement index (M.I.) ([1]; in vivo): 0.06±0.02 | Reduction of movement index ([1]; in vivo): 5 fold
